In publication PMC9481151, “Discovery of new symmetrical and asymmetrical nitrile-containing 1,4-dihydropyridine derivatives as dual kinases and P-glycoprotein inhibitors: synthesis, in vitro assays, and in silico studies” (Journal of Enzyme Inhibition and Medicinal Chemistry, 2022):

How the values were obtained:
HOP-62 = test: NCI single dose (10 µM) SRB screen; assay type: cell-based, human; details: non-small cell lung cancer, 48 h
SNB-19 = test: NCI single dose (10 µM) SRB screen; assay type: cell-based, human; details: CNS cancer, 48 h
SK-MEL-2 = test: NCI single dose (10 µM) SRB screen; assay type: cell-based, human; details: melanoma, 48 h
NCI-H322M = test: NCI single dose (10 µM) SRB screen; assay type: cell-based; details: non-small cell lung cancer, 48 h
HCC-2998 = test: NCI single dose (10 µM) SRB screen; assay type: cell-based, human; details: colon cancer, 48 h
Bacillus subtilis = test: Agar well diffusion method; details: relative to ciprofloxacin
TK-10 = test: NCI single dose (10 µM) SRB screen; assay type: cell-based, human; details: renal cancer, 48 h
MDA-MB-435 = test: NCI single dose (10 µM) SRB screen; assay type: cell-based, human; details: melanoma, 48 h
HT29 = test: NCI single dose (10 µM) SRB screen; assay type: cell-based, human; details: colon cancer, 48 h
DU-145 = test: NCI single dose (10 µM) SRB screen; assay type: cell-based, human; details: prostate cancer, 48 h
UO-31 = test: NCI single dose (10 µM) SRB screen; assay type: cell-based, human; details: renal cancer, 48 h
Pseudomonas aeruginosa = test: Agar well diffusion method; details: relative to ciprofloxacin
MOLT-4 = test: NCI single dose (10 µM) SRB screen; assay type: cell-based, human; details: leukaemia, 48 h
NCI 60 cancer cell lines = test: NCI single dose (10 µM) SRB screen, mean over panel; assay type: cell-based, human; details: mean over 60 cell lines, 48 h
SK-MEL-28 = test: NCI single dose (10 µM) SRB screen; assay type: cell-based, human; details: melanoma, 48 h
HL-60(TB) = test: NCI single dose (10 µM) SRB screen; assay type: cell-based, human; details: leukaemia, 48 h
SN12C = test: NCI single dose (10 µM) SRB screen; assay type: cell-based, human; details: renal cancer, 48 h
HS578T = test: NCI single dose (10 µM) SRB screen; assay type: cell-based, human; details: breast cancer, 48 h
NCI-H460 = test: NCI single dose (10 µM) SRB screen; assay type: cell-based, human; details: non-small cell lung cancer, 48 h
MCF7 = test: NCI single dose (10 µM) SRB screen; assay type: cell-based, human; details: breast cancer, 48 h
Aspergillus flavus = test: Agar well diffusion method; details: relative to clotrimazole
MALME-3M = test: NCI single dose (10 µM) SRB screen; assay type: cell-based, human; details: melanoma, 48 h
LOX IMVI = test: NCI single dose (10 µM) SRB screen; assay type: cell-based, human; details: melanoma, 48 h
COLO 205 = test: NCI single dose (10 µM) SRB screen; assay type: cell-based, human; details: colon cancer, 48 h
IGROV1 = test: NCI single dose (10 µM) SRB screen; assay type: cell-based, human; details: ovarian cancer, 48 h
HCT-116 = test: NCI single dose (10 µM) SRB screen; assay type: cell-based, human; details: colon cancer, 48 h
786-0 = test: NCI single dose (10 µM) SRB screen; assay type: cell-based, human; details: renal cancer, 48 h
K-562 = test: NCI single dose (10 µM) SRB screen; assay type: cell-based, human; details: leukaemia, 48 h
SF-295 = test: NCI single dose (10 µM) SRB screen; assay type: cell-based, human; details: CNS cancer, 48 h
Staphylococcus aureus = test: Agar well diffusion method; details: relative to ciprofloxacin
PC-3 = test: NCI single dose (10 µM) SRB screen; assay type: cell-based, human; details: prostate cancer, 48 h
HCT-15 = test: NCI single dose (10 µM) SRB screen; assay type: cell-based, human; details: colon cancer, 48 h
U251 = test: NCI single dose (10 µM) SRB screen; assay type: cell-based, human; details: CNS cancer, 48 h
RXF 393 = test: NCI single dose (10 µM) SRB screen; assay type: cell-based, human; details: renal cancer, 48 h
SNB-75 = test: NCI single dose (10 µM) SRB screen; assay type: cell-based, human; details: CNS cancer, 48 h
A498 = test: NCI single dose (10 µM) SRB screen; assay type: cell-based, human; details: renal cancer, 48 h
NCI-H226 = test: NCI single dose (10 µM) SRB screen; assay type: cell-based, human; details: non-small cell lung cancer, 48 h
T-47D = test: NCI single dose (10 µM) SRB screen; assay type: cell-based, human; details: breast cancer, 48 h
OVCAR-8 = test: NCI single dose (10 µM) SRB screen; assay type: cell-based, human; details: ovarian cancer, 48 h
KM12 = test: NCI single dose (10 µM) SRB screen; assay type: cell-based, human; details: colon cancer, 48 h
SK-MEL-5 = test: NCI single dose (10 µM) SRB screen; assay type: cell-based, human; details: melanoma, 48 h
MDA-MB-468 = test: NCI single dose (10 µM) SRB screen; assay type: cell-based, human; details: breast cancer, 48 h
NCI-H23 = test: NCI single dose (10 µM) SRB screen; assay type: cell-based, human; details: non-small cell lung cancer, 48 h
A549/ATCC = test: NCI single dose (10 µM) SRB screen; assay type: cell-based, human; details: non-small cell lung cancer, 48 h
SW-620 = test: NCI single dose (10 µM) SRB screen; assay type: cell-based, human; details: colon cancer, 48 h
CAKI-1 = test: NCI single dose (10 µM) SRB screen; assay type: cell-based, human; details: renal cancer, 48 h
SR = test: NCI single dose (10 µM) SRB screen; assay type: cell-based, human; details: leukaemia, 48 h
BT-549 = test: NCI single dose (10 µM) SRB screen; assay type: cell-based, human; details: breast cancer, 48 h
OVCAR-3 = test: NCI single dose (10 µM) SRB screen; assay type: cell-based, human; details: ovarian cancer, 48 h
Escherichia coli = test: Agar well diffusion method; details: relative to ciprofloxacin
SF-539 = test: NCI single dose (10 µM) SRB screen; assay type: cell-based, human; details: CNS cancer, 48 h
HOP-92 = test: NCI single dose (10 µM) SRB screen; assay type: cell-based, human; details: non-small cell lung cancer, 48 h
SF-268 = test: NCI single dose (10 µM) SRB screen; assay type: cell-based, human; details: CNS cancer, 48 h
M14 = test: NCI single dose (10 µM) SRB screen; assay type: cell-based, human; details: melanoma, 48 h
MDA-MB-231 = test: NCI single dose (10 µM) SRB screen; assay type: cell-based, human; details: breast cancer, 48 h
UACC-257 = test: NCI single dose (10 µM) SRB screen; assay type: cell-based, human; details: melanoma, 48 h
ACHN = test: NCI single dose (10 µM) SRB screen; assay type: cell-based, human; details: renal cancer, 48 h
Candida albicans = test: Agar well diffusion method; details: relative to clotrimazole
RPMI-8226 = test: NCI single dose (10 µM) SRB screen; assay type: cell-based, human; details: leukaemia, 48 h
UACC-62 = test: NCI single dose (10 µM) SRB screen; assay type: cell-based, human; details: melanoma, 48 h
SK-OV-3 = test: NCI single dose (10 µM) SRB screen; assay type: cell-based, human; details: ovarian cancer, 48 h
OVCAR-4 = test: NCI single dose (10 µM) SRB screen; assay type: cell-based, human; details: ovarian cancer, 48 h
CCRF-CEM = test: NCI single dose (10 µM) SRB screen; assay type: cell-based, human; details: leukaemia, 48 h
NCI/ADR-RES = test: NCI single dose (10 µM) SRB screen; assay type: cell-based, human; details: ovarian cancer, 48 h
OVCAR-5 = test: NCI single dose (10 µM) SRB screen; assay type: cell-based, human; details: ovarian cancer, 48 h
NCI-H522 = test: NCI single dose (10 µM) SRB screen; assay type: cell-based, human; details: non-small cell lung cancer, 48 h
EKVX = test: NCI single dose (10 µM) SRB screen; assay type: cell-based, human; details: non-small cell lung cancer, 48 h

CCOC(=O)C1=C(C)NC(C)=C(C(=O)OCC(C)C)C1c1cccc(C#N)c1 (racemic) [Compound 2i, (±)-3-Ethyl 5-isobutyl 4-(3-cyanophenyl)-2,6-dimethyl-1,4-dihydropyridine-3,5-dicarboxylate]
GI% HOP-62 (HOP-62): – (Only GI% ≥ 10 are shown) | GI% SNB-19 (SNB-19): – (Only GI% ≥ 10 are shown) | GI% SK-MEL-2 (SK-MEL-2): – (Only GI% ≥ 10 are shown) | GI% NCI-H322M (NCI-H322M): – (Only GI% ≥ 10 are shown) | GI% HCC-2998 (HCC-2998): – (Only GI% ≥ 10 are shown) | % activity index, B. subtilis (Bacillus subtilis): – (Values below 25 are of limited value and not shown as they refer either to inactive or non-diffusing compounds) | GI% TK-10 (TK-10): – (Only GI% ≥ 10 are shown) | GI% MDA-MB-435 (MDA-MB-435): – (Only GI% ≥ 10 are shown) | GI% HT29 (HT29): – (Only GI% ≥ 10 are shown) | GI% DU-145 (DU-145): – (Only GI% ≥ 10 are shown) | GI% UO-31 (UO-31): – (Only GI% ≥ 10 are shown) | % activity index, P. aeruginosa (Pseudomonas aeruginosa): – (Values below 25 are of limited value and not shown as they refer either to inactive or non-diffusing compounds) | GI% MOLT-4 (MOLT-4): 21% | Mean GI% (NCI 60 cancer cell lines): 9% | GI% SK-MEL-28 (SK-MEL-28): – (Only GI% ≥ 10 are shown) | GI% HL-60(TB) (HL-60(TB)): – (Only GI% ≥ 10 are shown) | GI% SN12C (SN12C): – (Only GI% ≥ 10 are shown) | GI% HS578T (HS578T): 13% | GI% NCI-H460 (NCI-H460): – (Only GI% ≥ 10 are shown) | GI% MCF7 (MCF7): 34% | % activity index, A. flavus (Aspergillus flavus): – (Values below 25 are of limited value and not shown as they refer either to inactive or non-diffusing compounds) | GI% MALME-3M (MALME-3M): – (Only GI% ≥ 10 are shown) | GI% LOX IMVI (LOX IMVI): 20% | GI% COLO 205 (COLO 205): – (Only GI% ≥ 10 are shown) | GI% IGROV1 (IGROV1): – (Only GI% ≥ 10 are shown) | GI% HCT-116 (HCT-116): 23% | melting point: 120 to 121 °C | GI% 786-0 (786-0): 11% | GI% K-562 (K-562): 24% | GI% SF-295 (SF-295): 31% | % activity index, S. aureus (Staphylococcus aureus): – (Values below 25 are of limited value and not shown as they refer either to inactive or non-diffusing compounds) | GI% PC-3 (PC-3): 29% | GI% HCT-15 (HCT-15): 30% | GI% U251 (U251): – (Only GI% ≥ 10 are shown) | GI% RXF 393 (RXF 393): 30% | GI% SNB-75 (SNB-75): 18% | GI% A498 (A498): – (Only GI% ≥ 10 are shown) | GI% NCI-H226 (NCI-H226): 22% | GI% T-47D (T-47D): 32% | GI% OVCAR-8 (OVCAR-8): – (Only GI% ≥ 10 are shown) | GI% KM12 (KM12): – (Only GI% ≥ 10 are shown) | GI% SK-MEL-5 (SK-MEL-5): 12% | GI% MDA-MB-468 (MDA-MB-468): 24% | GI% NCI-H23 (NCI-H23): 24% | GI% A549/ATCC (A549/ATCC): 10% | GI% SW-620 (SW-620): – (Only GI% ≥ 10 are shown) | GI% CAKI-1 (CAKI-1): 35% | GI% SR (SR): 23% | GI% BT-549 (BT-549): – (Only GI% ≥ 10 are shown) | GI% OVCAR-3 (OVCAR-3): – (Only GI% ≥ 10 are shown) | % activity index, E. coli (Escherichia coli): – (Values below 25 are of limited value and not shown as they refer either to inactive or non-diffusing compounds) | GI% SF-539 (SF-539): – (Only GI% ≥ 10 are shown) | GI% HOP-92 (HOP-92): 18% | GI% SF-268 (SF-268): – (Only GI% ≥ 10 are shown) | GI% M14 (M14): – (Only GI% ≥ 10 are shown) | GI% MDA-MB-231 (MDA-MB-231): – (Only GI% ≥ 10 are shown) | GI% UACC-257 (UACC-257): – (Only GI% ≥ 10 are shown) | GI% ACHN (ACHN): – (Only GI% ≥ 10 are shown) | % activity index, C. albicans (Candida albicans): – (Values below 25 are of limited value and not shown as they refer either to inactive or non-diffusing compounds) | GI% RPMI-8226 (RPMI-8226): – (Only GI% ≥ 10 are shown) | GI% UACC-62 (UACC-62): 27% | GI% SK-OV-3 (SK-OV-3): – (Only GI% ≥ 10 are shown) | GI% OVCAR-4 (OVCAR-4): 12% | GI% CCRF-CEM (CCRF-CEM): – (Only GI% ≥ 10 are shown) | GI% NCI/ADR-RES (NCI/ADR-RES): 22% | GI% OVCAR-5 (OVCAR-5): – (Only GI% ≥ 10 are shown) | GI% NCI-H522 (NCI-H522): 13% | GI% EKVX (EKVX): 29%
